Key:
[1] = biological target: FGFR4 (Homo sapiens (Human), UniProt P22455); assay: FGFR Enzymatic Assay (FRET peptide phosphorylation), FGFR4; conditions: pre-incubated for 4 hours; for FGFR1/FGFR4 IC50 ratio / FGFR2/FGFR4 IC50 ratio / FGFR3/FGFR4 IC50 ratio: IC50 ratio showing FGFR4 selectivity; for IC50: read-out: FGFR4 IC50
Source text: (§1) The enzymes were purchased from Millipore or Invitrogen.
(§2) GraphPad prism3 was used to analyze the data. The IC50 values were derived by fitting the data to the equation for a sigmoidal dose-response with a variable slope. Y=Bottom+(Top-Bottom)/(1+10^((LogIC50−X)*HillSlope)) where X is the logarithm of concentration and Y is the response.

[2] = biological target: FGFR3 (Homo sapiens (Human), UniProt P22607); assay: FGFR Enzymatic Assay (FRET peptide phosphorylation), FGFR3; conditions: read-out: FGFR3 IC50; pre-incubated for 4 hours
Source text: as §1, §2

[3] = biological target: FGFR1 (Homo sapiens (Human), UniProt P11362); assay: FGFR Enzymatic Assay (FRET peptide phosphorylation), FGFR1; conditions: read-out: FGFR1 IC50; pre-incubated for 4 hours
Source text: as §1, §2

[4] = biological target: FGFR2 (Homo sapiens (Human), UniProt P21802); assay: FGFR Enzymatic Assay (FRET peptide phosphorylation), FGFR2; conditions: read-out: FGFR2 IC50; pre-incubated for 4 hours
FGFR2, sequence (P21802 22-821): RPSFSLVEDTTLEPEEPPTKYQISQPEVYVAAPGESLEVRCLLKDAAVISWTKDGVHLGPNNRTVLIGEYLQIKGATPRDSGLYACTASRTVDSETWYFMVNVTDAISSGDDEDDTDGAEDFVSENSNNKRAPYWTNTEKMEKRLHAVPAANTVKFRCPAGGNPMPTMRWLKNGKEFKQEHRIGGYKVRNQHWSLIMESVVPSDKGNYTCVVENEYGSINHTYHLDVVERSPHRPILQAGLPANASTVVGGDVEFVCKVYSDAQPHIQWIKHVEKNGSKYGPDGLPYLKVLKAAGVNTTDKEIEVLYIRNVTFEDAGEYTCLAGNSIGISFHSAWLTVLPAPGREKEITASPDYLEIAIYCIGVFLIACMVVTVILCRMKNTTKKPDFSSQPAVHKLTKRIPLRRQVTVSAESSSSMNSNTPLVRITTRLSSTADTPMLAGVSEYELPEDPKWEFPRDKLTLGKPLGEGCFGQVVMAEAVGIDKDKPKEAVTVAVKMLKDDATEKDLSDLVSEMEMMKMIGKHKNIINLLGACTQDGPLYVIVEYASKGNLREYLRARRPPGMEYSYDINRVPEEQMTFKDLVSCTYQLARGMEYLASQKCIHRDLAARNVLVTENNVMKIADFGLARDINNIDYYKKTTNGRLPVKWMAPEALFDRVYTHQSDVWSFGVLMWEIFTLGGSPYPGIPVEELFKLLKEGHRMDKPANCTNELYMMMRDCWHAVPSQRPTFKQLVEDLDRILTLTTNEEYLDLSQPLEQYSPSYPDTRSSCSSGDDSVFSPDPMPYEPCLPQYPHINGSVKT
Source text: as §1, §2

FGFR1, sequence (P11362 22-822): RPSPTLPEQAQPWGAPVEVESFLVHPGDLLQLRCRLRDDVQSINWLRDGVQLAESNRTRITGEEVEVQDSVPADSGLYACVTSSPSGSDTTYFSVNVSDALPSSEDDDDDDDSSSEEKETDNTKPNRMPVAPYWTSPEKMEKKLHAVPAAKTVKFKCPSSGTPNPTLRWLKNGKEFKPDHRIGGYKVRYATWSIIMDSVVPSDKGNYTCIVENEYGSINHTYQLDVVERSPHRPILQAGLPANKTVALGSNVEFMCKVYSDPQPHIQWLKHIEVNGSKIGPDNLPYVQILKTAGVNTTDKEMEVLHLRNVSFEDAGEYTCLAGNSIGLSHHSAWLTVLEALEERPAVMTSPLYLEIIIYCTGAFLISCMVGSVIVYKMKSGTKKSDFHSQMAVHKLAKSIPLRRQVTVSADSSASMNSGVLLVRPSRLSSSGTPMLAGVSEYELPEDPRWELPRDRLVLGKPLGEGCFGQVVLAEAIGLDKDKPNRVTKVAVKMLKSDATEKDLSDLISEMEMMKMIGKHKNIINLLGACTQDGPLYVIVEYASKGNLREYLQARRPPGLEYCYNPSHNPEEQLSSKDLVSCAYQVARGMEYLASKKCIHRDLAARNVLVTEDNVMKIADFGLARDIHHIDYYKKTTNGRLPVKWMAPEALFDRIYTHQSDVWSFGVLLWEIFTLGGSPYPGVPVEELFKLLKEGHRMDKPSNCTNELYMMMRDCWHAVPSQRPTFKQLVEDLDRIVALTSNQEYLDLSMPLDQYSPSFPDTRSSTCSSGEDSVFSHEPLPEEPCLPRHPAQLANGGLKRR
FGFR3, sequence (P22607 23-806): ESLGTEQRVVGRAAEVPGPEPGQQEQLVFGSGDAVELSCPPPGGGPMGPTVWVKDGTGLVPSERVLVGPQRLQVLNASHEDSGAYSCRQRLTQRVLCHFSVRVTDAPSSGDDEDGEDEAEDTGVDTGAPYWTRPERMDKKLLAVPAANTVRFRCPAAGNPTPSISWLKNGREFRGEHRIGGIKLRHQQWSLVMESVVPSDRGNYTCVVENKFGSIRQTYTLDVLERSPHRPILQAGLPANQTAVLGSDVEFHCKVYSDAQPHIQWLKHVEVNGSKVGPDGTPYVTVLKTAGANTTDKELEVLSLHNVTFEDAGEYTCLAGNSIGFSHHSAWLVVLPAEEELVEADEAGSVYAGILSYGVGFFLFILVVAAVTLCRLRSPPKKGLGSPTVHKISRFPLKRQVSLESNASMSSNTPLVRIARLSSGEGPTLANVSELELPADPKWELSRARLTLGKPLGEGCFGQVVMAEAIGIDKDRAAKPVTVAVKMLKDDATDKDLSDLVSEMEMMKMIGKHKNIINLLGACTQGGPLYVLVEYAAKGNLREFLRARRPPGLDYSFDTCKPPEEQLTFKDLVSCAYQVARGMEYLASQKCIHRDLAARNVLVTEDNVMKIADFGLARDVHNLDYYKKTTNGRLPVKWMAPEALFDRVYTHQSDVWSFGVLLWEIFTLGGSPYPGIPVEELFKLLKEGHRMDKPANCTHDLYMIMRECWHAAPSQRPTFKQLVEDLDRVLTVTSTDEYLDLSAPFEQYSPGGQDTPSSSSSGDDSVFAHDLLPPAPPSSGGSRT
FGFR4, sequence (P22455 22-802): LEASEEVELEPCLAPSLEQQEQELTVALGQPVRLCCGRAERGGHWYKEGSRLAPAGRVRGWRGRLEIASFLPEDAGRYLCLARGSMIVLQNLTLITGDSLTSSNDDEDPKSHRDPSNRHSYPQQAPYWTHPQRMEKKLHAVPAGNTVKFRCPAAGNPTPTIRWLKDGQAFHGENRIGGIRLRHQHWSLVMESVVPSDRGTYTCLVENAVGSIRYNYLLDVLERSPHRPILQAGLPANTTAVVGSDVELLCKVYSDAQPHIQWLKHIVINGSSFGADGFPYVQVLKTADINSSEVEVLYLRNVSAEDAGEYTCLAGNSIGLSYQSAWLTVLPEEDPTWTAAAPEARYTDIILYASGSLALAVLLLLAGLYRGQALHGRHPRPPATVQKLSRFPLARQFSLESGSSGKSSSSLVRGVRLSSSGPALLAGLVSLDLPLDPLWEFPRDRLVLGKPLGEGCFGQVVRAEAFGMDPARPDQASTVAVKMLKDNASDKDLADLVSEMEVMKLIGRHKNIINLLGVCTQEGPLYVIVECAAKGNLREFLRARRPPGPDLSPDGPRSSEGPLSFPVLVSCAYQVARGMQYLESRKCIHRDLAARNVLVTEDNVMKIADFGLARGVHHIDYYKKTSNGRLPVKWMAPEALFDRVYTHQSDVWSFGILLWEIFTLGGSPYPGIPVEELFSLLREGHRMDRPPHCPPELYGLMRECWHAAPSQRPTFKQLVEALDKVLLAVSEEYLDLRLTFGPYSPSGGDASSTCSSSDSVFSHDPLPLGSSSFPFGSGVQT

Row | SMILES | FGFR1/FGFR4 IC50 ratio [1] | FGFR2/FGFR4 IC50 ratio [1] | FGFR3/FGFR4 IC50 ratio [1] | IC50 [1] [nM] | IC50 [2] [nM] | IC50 [3] [nM] | IC50 [4] [nM]
1 | C=CC(=O)Nc1cnn(Cc2cccnc2)c1-c1cc2c(cn1)CN(c1c(F)c(OC)cc(OC)c1F)C(=O)C21CC1 [Example 22, N-(5-(2′-(2,6-difluoro-3,5-dimethoxyphenyl)-3′-oxo-2′,3′-dihydro-1′H-spiro[cyclopropane-1,4′-[2,7]naphthyridine]-6′-yl)-1-(pyridin-3-ylmethyl)-1H-pyrazol-4-yl)acrylamide] | >100 | >100 | >100 | < 10 | > 200 | > 200 | > 200
2 | C=CC(=O)Nc1cnn(C[C@H]2CCOC2)c1-c1cc2c(cn1)CN(c1c(F)c(OC)cc(OC)c1F)C(=O)C21CC1 [Example 29, (R)-N-(5-(2′-(2,6-difluoro-3,5-dimethoxyphenyl)-3′-oxo-2′,3′-dihydro-1′H-spiro[cyclopropane-1,4′-[2,7]naphthyridine]-6′-yl)-1-((tetrahydrofuran-3-yl)methyl)-1H-pyrazol-4-yl)acrylamide] | >100 | >100 | >100 | < 10 | > 200 | > 200 | > 200

The remaining lines, values ahead:

Row | FGFR1/FGFR4 IC50 ratio [1] | FGFR2/FGFR4 IC50 ratio [1] | FGFR3/FGFR4 IC50 ratio [1] | IC50 [1] [nM] | IC50 [2] [nM] | IC50 [3] [nM] | IC50 [4] [nM] | SMILES
3 | >100 | >100 | >100 | < 10 | > 200 | > 200 | > 200 | C=CC(=O)Nc1cnn(Cc2ncn(C)n2)c1-c1cc2c(cn1)CN(c1c(F)c(OC)cc(OC)c1F)C(=O)C21CC1 [Example 23, N-(5-(2′-(2,6-difluoro-3,5-dimethoxyphenyl)-3′-oxo-2′,3′-dihydro-1′H-spiro[cyclopropane-1,4′-[2,7]naphthyridine]-6′-yl)-1-((1-methyl-1H-1,2,4-triazol-3-yl)methyl)-1H-pyrazol-4-yl)acrylamide]
4 | >100 | >100 | >100 | < 10 | > 200 | > 200 | > 200 | C=CC(=O)Nc1cnn(Cc2ccon2)c1-c1cc2c(cn1)CN(c1c(F)c(OC)cc(OC)c1F)C(=O)C21CC1 [Example 25, N-(5-(2′-(2,6-difluoro-3,5-dimethoxyphenyl)-3′-oxo-2′,3′-dihydro-1′H-spiro[cyclopropane-1,4′-[2,7]naphthyridine]-6′-yl)-1-(isoxazol-3-ylmethyl)-1H-pyrazol-4-yl)acrylamide]
5 | >100 | >100 | >100 | < 10 | > 200 | > 200 | > 200 | C=CC(=O)Nc1cn(CCN2CCOCC2)nc1-c1cc2c(cn1)CN(c1c(F)c(OC)cc(OC)c1F)C(=O)C21CC1 [Example 34, N-(3-(2′-(2,6-difluoro-3,5-dimethoxyphenyl)-3′-oxo-2′,3′-dihydro-1′H-spiro[cyclopropane-1,4′-[2,7]naphthyridine]-6′-yl)-1-(2-morpholinoethyl)-1H-pyrazol-4-yl)acrylamide]
6 | >100 | >100 | >100 | < 10 | > 200 | > 200 | > 200 | C=CC(=O)Nc1ccc(C)c(-c2ncc3c(n2)C2(CC2)C(=O)N(c2c(F)c(OC)cc(OC)c2F)C3)c1 [Example 37, N-(3-(6′-(2,6-difluoro-3,5-dimethoxyphenyl)-7′-oxo-6′,7′-dihydro-5′H-spiro[cyclopropane-1,8′-pyrido[4,3-d]pyrimidine]-2′-yl)-4-methylphenyl)acrylamide]

Source: patent US9580423B2, “Bicyclic heterocycles as FGFR4 inhibitors” (Incyte Corporation, priority 2015, dated 2017)
